The target in the test is T1, ASGP receptor (biotinylated ASGPR) (Homo sapiens, UniProt P07306).
T1 construct: biotin (biotinylated)
T1 sequence (P07306 1-291): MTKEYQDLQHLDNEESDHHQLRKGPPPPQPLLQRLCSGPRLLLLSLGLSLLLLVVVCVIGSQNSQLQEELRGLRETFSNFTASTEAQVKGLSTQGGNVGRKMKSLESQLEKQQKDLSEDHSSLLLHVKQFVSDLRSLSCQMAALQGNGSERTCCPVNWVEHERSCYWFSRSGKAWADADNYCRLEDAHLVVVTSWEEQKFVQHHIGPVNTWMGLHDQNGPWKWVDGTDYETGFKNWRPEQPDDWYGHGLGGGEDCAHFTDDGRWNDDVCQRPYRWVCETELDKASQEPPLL
It counts as binding. Conditions: SPR, Biacore 8K, 25° C., read-out: ASGPR KD.

67 compounds from patent US20260083851A1 (AVILAR THERAPEUTICS, INC., priority 2022, published 2026) can be followed below.

Like-named read-outs stand apart in the source and are kept apart here.

On to `O[C@@H]1[C@@H](Oc2cccc(C(F)(F)F)n2)CN(c2noc(-c3ccccc3)n2)C[C@@H]1O` [A353], for which the Kd (as a rule, a measure of binding affinity in units of concentration) (Table 1D) is less than 10 µM.

With `O=C(OCc1ccccc1)N1C[C@H](O)[C@H](O)[C@@H]([S@@+]([O-])c2cccc(C(F)(F)F)n2)C1` [A354], for the setting “Table 1D”, the Kd is 10 to 100 µM.

Take `O=C(OCc1ccccc1)N1C[C@H](O)[C@H](O)[C@@H]([S@+]([O-])c2cccc(C(F)(F)F)n2)C1` [A355]: the Kd (Table 1D, numeric bound) is greater than 30 µM.

For the compound `O=C(OCc1ccccc1)N1C[C@H](O)[C@H](O)[C@@H](S(=O)(=O)c2cccc(C(F)(F)F)n2)C1` [A356], the Kd (Table 1D, numeric bound) is greater than 30 µM.

Consider `CC(=O)NNC(=O)N1C[C@H](Oc2cccc(C(F)(F)F)n2)[C@@H](O)[C@@H](O)C1` [A357], for which the Kd (Table 1D) is less than 10 µM.

In the case of `O=C(OCc1ccccc1)N1C[C@H](O)[C@H](O)[C@@H](S(=O)(=O)c2cncc(C(F)(F)F)n2)C1` [A358], the Kd (Table 1D, numeric bound) is greater than 30 µM.

As for `O[C@@H]1[C@@H](Oc2cccc(C(F)(F)F)n2)CN(c2ncon2)C[C@@H]1O` [A359], the Kd (Table 1D) was less than 10 µM.

For `CCOC(=O)c1nc(N2C[C@H](Oc3cccc(C(F)(F)F)n3)[C@@H](O)[C@@H](O)C2)no1` [A360], the Kd (Table 1D) was less than 10 µM.

As for `O=C(OCc1ccccc1)N1C[C@H](Nc2cncc(C(F)(F)F)n2)[C@@H](O)[C@@H](O)C1` [A361], the Kd (Table 1D) is less than 10 µM.

As for `O[C@@H]1[C@@H](Nc2cncc(C(F)(F)F)n2)CNC[C@@H]1O` [A362], the Kd (Table 1D) is less than 10 µM.

With `CN1C[C@H](Nc2cncc(C(F)(F)F)n2)[C@@H](O)[C@@H](O)C1` [A363], for the setting “Table 1D”, the Kd is less than 10 µM.

With `O=C(c1ccc(Cc2ccccc2)cc1)N1C[C@H](Nc2cncc(C(F)(F)F)n2)[C@@H](O)[C@@H](O)C1` [A364], for the setting “Table 1D”, the Kd is less than 10 µM.

`CN(c1cncc(C(F)(F)F)n1)[C@H]1CNC[C@H](O)[C@@H]1O` [A365]: the Kd (Table 1D) is less than 10 µM.

Regarding `CCN1C[C@H](O)[C@H](O)[C@@H](N(C)c2cncc(C(F)(F)F)n2)C1` [A366], the Kd (Table 1D) is less than 10 µM.

For `O[C@@H]1[C@@H](Nc2cncc(C(F)(F)F)n2)CN(CC(F)(F)F)C[C@@H]1O` [A367], the dissociation constant (Kd) (Table 1D) is less than 10 µM.

Consider `CN1C[C@H](Nc2ccc(C(F)(F)F)cn2)[C@@H](O)[C@@H](O)C1` [A368], for which the Kd (Table 1D, numeric bound) was greater than 30 µM.

For `O=C(OCc1ccccc1)N1C[C@H](Nc2nccc(C(F)(F)F)n2)[C@@H](O)[C@@H](O)C1` [A369], the Kd (Table 1D) is less than 10 µM.

On to `O[C@@H]1[C@@H](Nc2nccc(C(F)(F)F)n2)CNC[C@@H]1O` [A370], for which, under “Table 1D”, the Kd lay within 10 to 100 µM.

On to `O=C(OCc1ccccc1)N1CC(Nc2cn[nH]c2)[C@@H](O)[C@@H](O)C1` (stereo partly shown) [A371], for which, under “Table 1D, numeric bound”, the Kd was greater than 30 µM.

Regarding `CN1C[C@H](Nc2nccc(C(F)(F)F)n2)[C@@H](O)[C@@H](O)C1` [A372], the Kd (Table 1D) is less than 10 µM.

For the compound `O[C@@H]1[C@@H](Nc2cncc(C(F)(F)F)n2)CN(Cc2ccccc2)C[C@@H]1O` [A373], the Kd (Table 1D) was less than 10 µM.

`O=C(OCc1ccccc1)N1C[C@H](Nc2ccc(C(F)(F)F)cn2)[C@@H](O)[C@@H](O)C1` [A374]: under “Table 1D, numeric bound”, the Kd is greater than 30 µM.

With `O=C(OCc1ccccc1)N1C[C@H](Nc2ccnc(C(F)(F)F)n2)[C@@H](O)[C@@H](O)C1` [A375], the Kd (Table 1D) is less than 10 µM.

In the case of `O=C(c1ccc(-c2ccccc2)cc1)N1C[C@H](Nc2cncc(C(F)(F)F)n2)[C@@H](O)[C@@H](O)C1` [A376], the Kd (Table 1D) is less than 10 µM.

On to `O[C@@H]1[C@@H](Nc2cncc(C(F)(F)F)n2)CN(c2ccc(C(F)(F)F)cn2)C[C@@H]1O` [A377], for which the Kd (Table 1D) is less than 10 µM.

With `O=C(c1ccc(C(F)(F)F)cn1)N1C[C@H](Nc2cncc(C(F)(F)F)n2)[C@@H](O)[C@@H](O)C1` [A378], the Kd (Table 1D) is less than 10 µM.

`O=C(c1ccc(C(F)(F)F)cc1F)N1C[C@H](Nc2cncc(C(F)(F)F)n2)[C@@H](O)[C@@H](O)C1` [A379]: the Kd (Table 1D) was less than 10 µM.

Take `O=C(OCc1ccccc1)N1C[C@H](Nc2nc(Cl)nn3cccc23)[C@@H](O)[C@@H](O)C1` [A380]: the Kd (Table 1D) is less than 10 µM.

Consider `O=C(O)COCCOCC(=O)C1C[C@H](Nc2cncc(C(F)(F)F)n2)[C@@H](O)[C@@H](O)C1` (stereo partly shown) [A381], for which the Kd (Table 1D) is less than 10 µM.

Take `O[C@@H]1[C@@H](Nc2nc(Cl)nn3cccc23)CNC[C@@H]1O` [A382]: the Kd (Table 1D) lay in the range of 10 to 100 µM.

Consider `O=C(O)c1ccc(-c2ccc(C(=O)N3C[C@H](Nc4cncc(C(F)(F)F)n4)[C@@H](O)[C@@H](O)C3)cc2)cc1` [A383], for which the Kd (Table 1D) is less than 10 µM.

As to `O=C(Oc1ccc(-c2ccccc2)cc1)N1C[C@H](Nc2cncc(C(F)(F)F)n2)[C@@H](O)[C@@H](O)C1` [A384], the Kd (Table 1D) is less than 10 µM.

Regarding `O=C(OCc1ccccc1)N1C[C@H](Oc2cncc(C(F)(F)F)n2)[C@@H](O)[C@@H](O)C1` [A385], for the setting “Table 1D”, the Kd is less than 10 µM.

For the compound `O=C(OCc1ccccc1)N1C[C@H](Oc2cccc(C(F)(F)F)n2)[C@@H](O)[C@@H](O)C1` [A386], the Kd (Table 1D) is less than 10 µM.

`O=C(O)c1ccc(-c2ccc(CN3C[C@H](Nc4cncc(C(F)(F)F)n4)[C@@H](O)[C@@H](O)C3)cc2)cc1` [A387]: the Kd (Table 1D) is less than 10 µM.

For `O[C@@H]1[C@@H](Oc2cccc(C(F)(F)F)n2)CNC[C@@H]1O` [A388], under “Table 1D”, the Kd was less than 10 µM.

As to `O[C@@H]1[C@@H](Oc2cncc(C(F)(F)F)n2)CNC[C@@H]1O` [A389], the Kd (Table 1D) was less than 10 µM.

In the case of `O=C(OCc1ccccc1)N1C[C@H](Nc2cccc(C(F)(F)F)n2)[C@@H](O)[C@@H](O)C1` [A390], the Kd (Table 1D) is less than 10 µM.

Regarding `COC(=O)c1ccc(-c2ccc(C(=O)N3C[C@H](Nc4cncc(C(F)(F)F)n4)[C@@H](O)[C@@H](O)C3)cc2)cc1` [A391], for the setting “Table 1D”, the Kd is less than 10 µM.

With `O=C(O)c1ccc(C(=O)N2C[C@H](Nc3cncc(C(F)(F)F)n3)[C@@H](O)[C@@H](O)C2)nc1` [A392], the Kd (Table 1D) is less than 10 µM.

As to `O[C@@H]1[C@@H](Nc2cncc(C(F)(F)F)n2)CN(c2ccccc2)C[C@@H]1O` [A393], for the setting “Table 1D”, the Kd was less than 10 µM.

As to `OCC1CCN(c2ccc(N3C[C@H](Nc4cncc(C(F)(F)F)n4)[C@@H](O)[C@@H](O)C3)nn2)CC1` [A394], under “Table 1D”, the Kd was less than 10 µM.

For the compound `O[C@@H]1[C@@H](Nc2cncc(C(F)(F)F)n2)CN(c2cccnn2)C[C@@H]1O` [A395], the Kd (Table 1D) is less than 10 µM.

With `O[C@@H]1[C@@H](Nc2cccc(C(F)(F)F)n2)CN(C2CCNCC2)C[C@@H]1O` [A396], the equilibrium dissociation constant (Kd) (Table 1D) is less than 10 µM.

As to `CC(C)(C)OC(=O)N1CCC(N2C[C@H](Nc3cccc(C(F)(F)F)n3)[C@@H](O)[C@@H](O)C2)CC1` [A397], the Kd (Table 1D) is less than 10 µM.

Regarding `O[C@@H]1[C@@H](Nc2ncnn3cccc23)CNC[C@@H]1O` [A400], the Kd (Table 1D, numeric bound) was greater than 30 µM.

Take `O=C(O)C1CCN(c2ccc(N3C[C@H](Nc4cncc(C(F)(F)F)n4)[C@@H](O)[C@@H](O)C3)nc2)CC1` [A401]: where the note is “Table 1D”, the Kd was less than 10 µM.

With `C#CCOc1nc(N[C@H]2CO[C@H](CO)[C@H](O)[C@@H]2O)cc(C(F)(F)F)n1` [A402], under “Table 1D”, the Kd lay within 10 to 100 µM.

For the compound `CN1C[C@H](Oc2cccc(C(F)(F)F)n2)[C@@H](O)[C@@H](O)C1` [A403], the Kd (Table 1D) lay within 10 to 100 µM.

Regarding `O=C(CCCCC(=O)N1C[C@H](Nc2cncc(C(F)(F)F)n2)[C@@H](O)[C@@H](O)C1)OCc1ccccc1` [A404], the Kd (Table 1D) was less than 10 µM.

Take `CC(=O)N[C@H]1CN(C(=O)CCCCC(=O)OCc2ccccc2)C[C@H](O)[C@@H]1O` [A407]: the Kd (Table 1D) lay in the range of 10 to 100 µM.

Regarding `O=C(O)CCCCC(=O)N1C[C@H](Nc2cncc(C(F)(F)F)n2)[C@@H](O)[C@@H](O)C1` [A408], the Kd (Table 1D) is less than 10 µM.

Turning to `O=C(OCc1ccccc1)N1CCC(c2cnc(OC[C@H]3OC[C@H](Nc4cncc(C(F)(F)F)n4)[C@@H](O)[C@H]3O)cn2)CC1` [A409], the Kd (Table 1D) is less than 10 µM.

As for `O=C(OCc1ccccc1)N1CC(c2ccc(OC[C@H]3OC[C@H](Nc4cncc(C(F)(F)F)n4)[C@@H](O)[C@H]3O)nn2)C1` [A410], the Kd (Table 1D) was less than 10 µM.

On to `O=C(OCc1ccccc1)N1CCC(N2C[C@H](Nc3cccc(C(F)(F)F)n3)[C@@H](O)[C@@H](O)C2)C(F)(F)C1` (stereo partly shown) [A412], for which, for the setting “Table 1D”, the Kd is less than 10 µM.

Turning to `O[C@@H]1[C@H](O)[C@@H](Nc2cncc(C(F)(F)F)n2)CO[C@@H]1COc1cnc(C2CCNCC2)cn1` [A415], the Kd (Table 1D) is less than 10 µM.

Regarding `O[C@@H]1[C@H](O)[C@@H](Nc2cncc(C(F)(F)F)n2)CO[C@@H]1COc1ccc(C2CCNCC2)nn1` [A416], the Kd (Table 1D) was less than 10 µM.

Consider `O[C@@H]1[C@H](O)[C@@H](Oc2cncc(C(F)(F)F)n2)CO[C@@H]1COc1ncccn1` [A417], for which the Kd (Table 1D) is less than 10 µM.

As to `Nc1ccc(OC[C@H]2OC[C@H](Nc3cncc(C(F)(F)F)n3)[C@@H](O)[C@H]2O)nn1` [A418], for the setting “Table 1D”, the Kd was less than 10 µM.

Consider `O[C@@H]1[C@H](O)[C@@H](Nc2cncc(C(F)(F)F)n2)CO[C@@H]1COc1ccc(C2CNC2)nn1` [A420], for which the Kd (Table 1D) is less than 10 µM.

As to `O[C@@H]1[C@H](O)[C@@H](Oc2cncc(C(F)(F)F)n2)CO[C@@H]1COc1cnccn1` [A421], the Kd (Table 1D) was less than 10 µM.

`O=C(c1ccccc1)N1C[C@H](Nc2cncc(C(F)(F)F)n2)[C@@H](O)[C@@H](O)C1` [A422]: the Kd (Table 1D) was less than 10 µM.

Take `O=C(c1ccccn1)N1C[C@H](Nc2cncc(C(F)(F)F)n2)[C@@H](O)[C@@H](O)C1` [A423]: for the setting “Table 1D”, the Kd was less than 10 µM.

In the case of `C[C@H]1O[C@H](C(=O)Nc2cn[nH]c2)[C@H](Nc2cccc(C(F)(F)F)n2)[C@@H](O)[C@H]1O` [A424], for the setting “Table 1D”, the Kd was less than 10 µM.

Consider `O[C@@H]1[C@@H](Oc2cccc(C(F)(F)F)n2)CN(c2cnccn2)C[C@@H]1O` [A425], for which, for the setting “Table 1D”, the Kd is less than 10 µM.

As to `O[C@@H]1[C@@H](Oc2cccc(C(F)(F)F)n2)CN(c2ccc(C(F)(F)F)cn2)C[C@@H]1O` [A427], the Kd (Table 1D) was less than 10 µM.

On to `C[C@H]1O[C@H](C(N)=O)[C@H](Oc2cccc(C(F)(F)F)n2)[C@@H](O)[C@H]1O` [A431], for which, for the setting “Table 1E”, the Kd was less than 10 µM.
